Test results as given in patent publication US20260226006A1, “INDOLE COMPOUND, PREPARATION METHOD THEREFOR AND USE THEREOF” (SUZHOU MERNA THERAPEUTICS CO. LTD, priority 2023, published 2026).

Experiments:
HaCat cells = assay: m6A methylation level of human HaCat keratinocytes, EpiQuik m6A RNA methylation quantification kit (Example 20); format: cell-based; conditions: for m6A fold change relative to control group 1: HaCat cells, 24 hours
Procedure, shortened: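 HaCat keratinocytes in DMEM/10% FBS given 50 nM sorafenib, capecitabine, docetaxel or osimertinib, then 400 nM test compound or nicotinamide, and cultured 24 hours at 37° C. Total RNA m6A quantified by EpiQuik ELISA at 450 nm against a standard curve, expressed as percentage of RNA input.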

HaCaT keratinocytes = assay: Inhibition of HBEGF-induced differentiation of HaCaT keratinocytes, marker mRNA by RT-PCR (Example 21); format: cell-based, human; conditions: 2.5 ng/mL human recombinant HBEGF protein + test compound, 24 hours
Procedure, shortened: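 HaCaT cells cultured 24 h at 37° C, then exposed for 24 h to 2.5 ng/mL recombinant human HBEGF with test compounds; DMSO and HBEGF-only controls. Total RNA (1 μg) reverse-transcribed; KRT1, KRT10, Loricrin and Involucrin mRNA measured by SYBR RT-PCR and agarose gel electrophoresis.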

paw plantar skin of rats = assay: Rat models with hand-foot skin reaction, topical ointment (Example 22); format: in vivo, SD rats; conditions: for Incidence rate: 30 days
[1] = paw plantar skin of modeled rats, topical ointment

NC(=O)C1c2[nH]c3ccc(Cl)cc3c2C2CCC1C2 [Compound 5a, (S)-2-chloro-5,6,7,8,9,10-hexahydro-7,10-methanocyclohepta[b]indole-6-carboxamide]
abnormal increase in the RNA m6A level of human keratinocytes caused by chemotherapeutic drugs and multikinase inhibitors (HaCat cells; 400 nM compound after 50 nM drug): effectively inhibit
m6A fold change relative to control group 1 (HaCat cells; 50 nM capecitabine + 400 nM test compound): 1.2
m6A fold change relative to control group 1 (HaCat cells; 50 nM docetaxel + 400 nM test compound): 1.0
m6A fold change relative to control group 1 (HaCat cells; 50 nM osimertinib + 400 nM test compound): 1.2
m6A fold change relative to control group 1 (HaCat cells; 50 nM sorafenib + 400 nM test compound): 1.0
mRNA expression amounts of HaCaT differentiation markers KRT1, KRT10, Loricrin, and Involucrin (HaCaT keratinocytes): significantly inhibited
Incidence rate (paw plantar skin of rats; afatinib 50 mg/kg, 1% compound ointment on left paw, left paw): 1/12 (8%)
Incidence rate (paw plantar skin of rats; afatinib 50 mg/kg, 1% compound ointment on left paw, right paw (blank matrix ointment)): 9/12 (75%)
Incidence rate (paw plantar skin of rats; afatinib 50 mg/kg, 3% compound ointment on left paw, left paw): 1/12 (8%)
Incidence rate (paw plantar skin of rats; afatinib 50 mg/kg, 3% compound ointment on left paw, right paw (blank matrix ointment)): 4/12 (33%)
Incidence rate (paw plantar skin of rats; afatinib 50 mg/kg, 10% compound ointment on left paw, left paw): 0/12 (0%)
Incidence rate (paw plantar skin of rats; afatinib 50 mg/kg, 10% compound ointment on left paw, right paw (blank matrix ointment)): 1/12 (8%)
incidence rate of hand-foot skin reaction at a drug application site (paw plantar skin of rats; compounds at a mass content of 1% in ointment): significantly decrease
incidence rate of hand-foot skin reaction in all paws of the rats (paw plantar skin of rats; compounds at mass contents of 3% and 10% in ointment): significantly decrease
Incidence rate (paw plantar skin of rats; erlotinib 70 mg/kg, 1% compound ointment on left paw, left paw): 2/12 (17%)
Incidence rate (paw plantar skin of rats; erlotinib 70 mg/kg, 1% compound ointment on left paw, right paw (blank matrix ointment)): 9/12 (75%)
Incidence rate (paw plantar skin of rats; erlotinib 70 mg/kg, 3% compound ointment on left paw, left paw): 2/12 (17%)
Incidence rate (paw plantar skin of rats; erlotinib 70 mg/kg, 3% compound ointment on left paw, right paw (blank matrix ointment)): 5/12 (42%)
Incidence rate (paw plantar skin of rats; erlotinib 70 mg/kg, 10% compound ointment on left paw, left paw): 0/12 (0%)
Incidence rate (paw plantar skin of rats; erlotinib 70 mg/kg, 10% compound ointment on left paw, right paw (blank matrix ointment)): 0/12 (0%)
Incidence rate (paw plantar skin of rats; osimertinib 60 mg/kg, 1% compound ointment on left paw, left paw): 2/12 (17%)
Incidence rate (paw plantar skin of rats; osimertinib 60 mg/kg, 1% compound ointment on left paw, right paw (blank matrix ointment)): 9/12 (75%)
Incidence rate (paw plantar skin of rats; osimertinib 60 mg/kg, 3% compound ointment on left paw, left paw): 1/12 (8%)
Incidence rate (paw plantar skin of rats; osimertinib 60 mg/kg, 3% compound ointment on left paw, right paw (blank matrix ointment)): 4/12 (33%)
Incidence rate (paw plantar skin of rats; osimertinib 60 mg/kg, 10% compound ointment on left paw, left paw): 0/12 (0%)
Incidence rate (paw plantar skin of rats; osimertinib 60 mg/kg, 10% compound ointment on left paw, right paw (blank matrix ointment)): 1/12 (8%)
formation of blisters, inflammatory cell infiltration in the dermis and skin congestion (pathological scoring) (paw plantar skin of rats; [1]): effectively improve
formation of blisters, inflammatory cell infiltration in the dermis and skin congestion (tissue staining) (paw plantar skin of rats; [1]): effectively improve
Incidence rate (paw plantar skin of rats; sorafenib 100 mg/kg, 1% compound ointment on left paw, left paw): 1/12 (8%)
Incidence rate (paw plantar skin of rats; sorafenib 100 mg/kg, 1% compound ointment on left paw, right paw (blank matrix ointment)): 10/12 (83%)
Incidence rate (paw plantar skin of rats; sorafenib 100 mg/kg, 3% compound ointment on left paw, left paw): 1/12 (8%)
Incidence rate (paw plantar skin of rats; sorafenib 100 mg/kg, 3% compound ointment on left paw, right paw (blank matrix ointment)): 5/12 (42%)
Incidence rate (paw plantar skin of rats; sorafenib 100 mg/kg, 10% compound ointment on left paw, left paw): 0/12 (0%)
Incidence rate (paw plantar skin of rats; sorafenib 100 mg/kg, 10% compound ointment on left paw, right paw (blank matrix ointment)): 2/12 (17%
differentiation of keratinocytes both in vitro and in vivo (paw plantar skin of rats; summary of Examples 21 and 22): effectively inhibit
stratum corneum thickness of the paw plantar skin of the modeled rats (paw plantar skin of rats; topical ointment, modeled rats): effectively decrease
